Assay results as given in ChEMBL document CHEMBL1124317, “Rationale for the synthesis and preliminary biological evaluation of highly active new antitumor nitrosoureido sugars” (J Med Chem, 1989).

Experiments:
Format in all cases: functional
[1] = system: Mus musculus; assay: Anti tumor activity in olive oil when treated to mice with B16 melanocarcinoma with 20 mg/kg dose of compound intraperitoneally was expressed as percent of treated to control (T/C %); settings: route intraperitoneal
[2] = system: Mus musculus; assay: The number of B16 melanocarcinoma mice survived after 30 days with compound in olive oil injected by a dose of 20 mg/kg intraperitoneally; 9/20; settings: route intraperitoneal
[3] = system: Mus musculus; assay: Median survival time of the non surviving mice; treated with 20 mg/kg of compound in olive oil to mice with Lewis lung; 21-41
[4] = system: Mus musculus; assay: Anti tumor activity in olive oil when treated to mice with L1210 leukemia with 20 mg/kg dose of compound intraperitoneally was expressed as percent of treated to control (T/C %); settings: route intraperitoneal
[5] = Ratio of mice died to that of mice treated with 20 mg/kg of compound in olive oil intraperitoneally with L1210 leukemia tumor; 0/15; settings: route intraperitoneal
[6] = system: Mus musculus; assay: Anti tumor activity in olive oil when treated to mice with Lewis lung with 20 mg/kg dose of compound intraperitoneally was expressed as percent of treated to control (T/C %); settings: route intraperitoneal
[7] = Ratio of mice died to that of mice treated with 20 mg/kg of compound in olive oil intraperitoneally with Lewis lung; 0/20; settings: route intraperitoneal
[8] = system: Mus musculus; assay: The number of B16 melanocarcinoma mice survived after 60 days with compound in olive oil injected by a dose of 20 mg/kg intraperitoneally; 1/20; settings: route intraperitoneal
[9] = system: Mus musculus; assay: Median survival time of the non surviving mice; treated with 20 mg/kg of compound in olive oil to mice with L1210 leukemia tumor; 21-42
[10] = system: Mus musculus; assay: The number of L1210 Leukemia mice survived after 60 days with compound in olive oil injected by a dose of 20 mg/kg intraperitoneally; 3/15; settings: route intraperitoneal
[11] = system: Mus musculus; assay: The number of Lewis lung mice survived after 60 days with compound in olive oil injected by a dose of 20 mg/kg intraperitoneally; 8/20; settings: route intraperitoneal
[12] = system: Mus musculus; assay: Median survival time of the non surviving mice; treated with 20 mg/kg of compound in olive oil to mice with B16 Melanocarcinoma; 23-45
[13] = system: Mus musculus; assay: The number of L1210 Leukemia mice survived after 30 days with compound in olive oil injected by a dose of 20 mg/kg intraperitoneally; 4/15; settings: route intraperitoneal
[14] = Ratio of mice died to that of mice treated with 20 mg/kg of compound in olive oil intraperitoneally with B16 Melanocarcinoma; 0/20; settings: route intraperitoneal
[15] = system: Mus musculus; assay: The number of Lewis lung mice survived after 30 days with compound in olive oil injected by a dose of 20 mg/kg intraperitoneally; 13/20; settings: route intraperitoneal
[16] = system: Mus musculus; assay: The number of Lewis lung mice survived after 30 days with compound in olive oil injected by a dose of 20 mg/kg intraperitoneally; 14/20; settings: route intraperitoneal
[17] = system: Mus musculus; assay: The number of L1210 Leukemia mice survived after 30 days with compound in olive oil injected by a dose of 20 mg/kg intraperitoneally; 15/15; settings: route intraperitoneal
[18] = system: Mus musculus; assay: The number of L1210 Leukemia mice survived after 60 days with compound in olive oil injected by a dose of 20 mg/kg intraperitoneally; 15/15; settings: route intraperitoneal
[19] = system: Mus musculus; assay: The number of B16 melanocarcinoma mice survived after 30 days with compound in olive oil injected by a dose of 20 mg/kg intraperitoneally; 1/20; settings: route intraperitoneal
[20] = system: Mus musculus; assay: The number of Lewis lung mice survived after 60 days with compound in olive oil injected by a dose of 20 mg/kg intraperitoneally; 6/20; settings: route intraperitoneal
[21] = system: Mus musculus; assay: The number of B16 melanocarcinoma mice survived after 60 days with compound in olive oil injected by a dose of 20 mg/kg intraperitoneally; 0/20; settings: route intraperitoneal
[22] = system: Mus musculus; assay: Median survival time of the non surviving mice; treated with 20 mg/kg of compound in olive oil to mice with Lewis lung; 19-46
[23] = system: Mus musculus; assay: Median survival time of the non surviving mice; treated with 20 mg/kg of compound in olive oil to mice with B16 Melanocarcinoma; 20-32
[24] = system: Mus musculus; assay: Median survival time of the non surviving mice; treated with 5 mg/kg of compound to mice with L1210 leukemia; 18-24
[25] = system: Mus musculus; assay: Median survival time of the non surviving mice; treated with 1.25 mg/kg of compound to mice with L1210 leukemia; 9-11
[26] = system: Mus musculus; assay: Median survival time of the non surviving mice; treated with 0.625 mg/kg of compound to mice with L1210 leukemia; 9-10
[27] = system: Mus musculus; assay: The number of L1210 leukemia mice survived after 30 days with compound injected by a dose of 10 mg/kg intraperitoneally; 8/8; settings: route intraperitoneal
[28] = system: Mus musculus; assay: The number of L1210 leukemia mice survived after 30 days with compound injected by a dose of 0.625 mg/kg intraperitoneally; 0/8; settings: route intraperitoneal
[29] = system: Mus musculus; assay: Median survival time of the non surviving mice; treated with 5 mg/kg of compound in olive oil to mice with L1210 leukemia; 16-19
[30] = system: Mus musculus; assay: Anti tumor activity in olive oil when treated to mice with L1210 leukemia with 5 mg/kg dose of compound intraperitoneally was expressed as percent of treated to control (T/C %); settings: route intraperitoneal
[31] = system: Mus musculus; assay: The number of L1210 leukemia mice survived after 60 days with compound in aqueous solution injected by a dose of 5 mg/kg intraperitoneally; 0/10; settings: route intraperitoneal
[32] = Mortality range of the mice with L1210 leukemia treated with 1.25 mg/kg of dose intraperitoneally with no of mice survived/no of mice treated; 0/8; settings: route intraperitoneal
[33] = system: Mus musculus; assay: The number of L1210 leukemia mice survived after 30 days with compound injected by a dose of 1.25 mg/kg intraperitoneally; 0/8; settings: route intraperitoneal
[34] = Mortality range of the mice with L1210 leukemia treated with 10 mg/kg of dose intra peritoneally with no of mice survived/no of mice treated; 0/8
[35] = Number of mice died/no of mice treated with 5 mg/kg of compound in aqueous solution intraperitoneally with L1210 leukemia; 0/10; settings: route intraperitoneal
[36] = system: Mus musculus; assay: Anti tumor activity l when treated to mice with L1210 leukemia with 0.625 mg/kg dose of compound intraperitoneally was expressed as percent of treated to control (T/C %); settings: route intraperitoneal
[37] = system: Mus musculus; assay: Anti tumor activity l when treated to mice with L1210 leukemia with 5 mg/kg dose of compound intraperitoneally was expressed as percent of treated to control (T/C %); settings: route intraperitoneal
[38] = system: Mus musculus; assay: The number of L1210 leukemia mice survived after 30 days with compound injected by a dose of 5 mg/kg intraperitoneally; 0/8; settings: route intraperitoneal
[39] = Mortality range of the mice with L1210 leukemia treated with 5 mg/kg of dose intraperitoneally with no of mice survived/no of mice treated; 0/8; settings: route intraperitoneal
[40] = system: Mus musculus; assay: The number of L1210 leukemia mice survived after 30 days with compound injected by a dose of 2.5 mg/kg intraperitoneally; 0/8; settings: route intraperitoneal
[41] = Mortality range of the mice with L1210 leukemia treated with 0.625 mg/kg of dose intraperitoneally with no of mice survived/no of mice treated; 0/8; settings: route intraperitoneal
[42] = system: Mus musculus; assay: Anti tumor activity l when treated to mice with L1210 leukemia with 2.5 mg/kg dose of compound intraperitoneally was expressed as percent of treated to control (T/C %); settings: route intraperitoneal
[43] = system: Mus musculus; assay: Median survival time of the non surviving mice; treated with 2.5 mg/kg of compound to mice with L1210 leukemia; 11-12
[44] = system: Mus musculus; assay: Anti tumor activity l when treated to mice with L1210 leukemia with 1.25 mg/kg dose of compound intraperitoneally was expressed as percent of treated to control (T/C %); settings: route intraperitoneal
[45] = Mortality range of the mice with L1210 leukemia treated with 2.5 mg/kg of dose intraperitoneally with no of mice survived/no of mice treated; 0/8; settings: route intraperitoneal
[46] = system: Mus musculus; assay: The number of L1210 leukemia mice survived after 30 days with compound in aqueous solution injected by a dose of 5 mg/kg intraperitoneally; 0/10; settings: route intraperitoneal

COC1CC(O)C(O)C(CNC(=O)N(CCCl)N=O)O1 (stereo unspecified)
T/C [1]: 215% | Survivals [2]: 9 | Median survival time [3]: 39 | T/C [4]: 263% | Ratio [5]: 0 | T/C [6]: 313% | Ratio [7]: 0 | Survivals [8]: 1 | Median survival time [9]: 23.5 | Survivals [10]: 3 | Survivals [11]: 8 | Median survival time [12]: 30 | Survivals [13]: 4 | Ratio [14]: 0 | Survivals [15]: 13

COC1CC(NC(=O)N(CCCl)N=O)C(OC)C(C)O1 (stereo unspecified)
T/C [1]: 170% | Survivals [16]: 14 | Ratio [5]: 0 | T/C [6]: 281% | Ratio [7]: 0 | Survivals [17]: 15 | Survivals [18]: 15 | Ratio [14]: 0 | Survivals [19]: 1 | Survivals [20]: 6 | Survivals [21]: 0 | Median survival time [22]: 35 | Median survival time [23]: 23.62

O=NN(CCCl)C(=O)NCCCl [CARMUSTINE]
Median survival time [24]: 19.8 | Median survival time [25]: 9.9 | Median survival time [26]: 9.4 | Survivals [27]: 8 | Survivals [28]: 0 | Median survival time [29]: 16.75 | T/C [30]: 177% | Survivals [31]: 0 | Ratio [32]: 0 | Survivals [33]: 0 | Ratio [34]: 0 | Ratio [35]: 0 | T/C [36]: 104% | T/C [37]: 220% | Survivals [38]: 0 | Ratio [39]: 0 | Survivals [40]: 0 | Ratio [41]: 0 | T/C [42]: 128% | Median survival time [43]: 11.5 | T/C [44]: 110% | Ratio [45]: 0 | Survivals [46]: 0
